# Measurements from patent US20260207604A1, “COMPOUND AND USE THEREOF” (ONQUALITY PHARMACEUTICALS CHINA LTD., priority 2022, published 2026).
# Read-outs that look alike come from different tables or passages of the source.
# What was measured:
# [1] = tested on: 5-FU-induced diarrhea model; assay: 5-FU-induced diarrhea model, 5-FU 1-day model; type: in vivo, Balb/c mice; conditions: 5-FU 175 mg/kg once a day, mice
# Description: The 5-FU-induced diarrhea model was used as an experimental model of the present invention to evaluate the in vivo activity of the compounds.
# Balb/c mice (20-25 g, 7-8 weeks old, Jihui) were acclimated for one week and then randomly assigned to 3 groups (n=10 per group): control group, 5-FU group, and CDK inhibitor group. The control group received the same vehicle as the CDK inhibitor group by oral gavage, followed by injection of the same vehicle as the 5-FU group. The 5-FU group received the same vehicle by oral gavage as the CDK inhibitor group, followed by 5-FU injection. The CDK inhibitor group received oral administration of the CDK inhibitor, followed by 5-FU injection. From day 1 to day 7, the severity of diarrhea was assessed for each mouse according to the diarrhea scoring system.
# (§1) The diarrhea scoring system was based on the method by Akinobu Kurita (Cancer Chemother Pharmacol 2000; 46:211-20), Grade 0: normal stool; Grade 1: mild diarrhea, slightly soft stool and wet stool; Grade 2: moderate diarrhea, loose stool with slight perianal staining; Grade 3: severe diarrhea, loose watery stool with severe perianal staining.
# The diarrhea relief rate (%) was calculated as follows: […]
# [2] = tested on: MCF-7 human breast cancer cells; assay: Cell viability assay (CELLTITER-GLO); type: cell-based; conditions: MCF7, 168 h, MCF-7 cells, 7 days
# Protocol: The cell viability of MCF-7 human breast cancer cells under standard culture conditions was assessed using the CELLTITER-GLO assay. MCF-7 cells were seeded at 3,000 cells per well in 96-well plates and incubated overnight in a CO2 incubator. The next day, serial dilutions of Compound 1 at various concentrations were added to the wells. The plates were returned to the incubator and cultured for 7 days. After 7 days, the plates were equilibrated at room temperature for 30 minutes. Subsequently, 100 μL of CELLTITER-GLO detection solution was added. The cells were mixed on an orbital shaker for 5 min and then incubated for additional 10 min. The plate was read with an ENVISION reader. Data were processed and analyzed to determine the IC50 values.
# [3] = tested on: Irinotecan-induced diarrhea model; assay: Irinotecan-induced diarrhea model; type: in vivo, Balb/c mice; conditions: irinotecan 230 mg/kg once a day, 1 day, mice
# Description: Irinotecan-induced diarrhea and/or constipation models were employed as additional in vivo experimental models to evaluate the activity of the compounds of the present application.
# Balb/c mice (20-25 g, 7-8 weeks old, Jihui) were acclimated for one week and then randomly assigned to 3 groups (n=10 per group): control group, irinotecan group, and CDK inhibitor group. Control group: received the same vehicle as the CDK inhibitor group by oral gavage, followed by injection of the same vehicle as the irinotecan group; irinotecan group: received the same vehicle by oral gavage as the CDK inhibitor group, followed by injection of irinotecan; CDK inhibitor group: received oral administration of the CDK inhibitor, followed by injection of irinotecan.
# In the irinotecan group, approximately 6 to 9 out of 10 mice developed diarrhea. From Day 1 to Day 7, the severity of diarrhea in each mouse was evaluated using the following scoring criteria:
# as §1, with “staining. Calculate the diarrhea Relief rate of compound treatment. Relief rate (%)=(diarrhea score of irinotecan group−diarrhea score of CDK inhibitor group)/diarrhea score of irinotecan group×100%.” for “staining.”
# [4] = tested on: Irinotecan-induced constipation model; assay: Irinotecan-induced constipation model; type: in vivo, Sprague-Dawley rats; conditions: irinotecan 260 mg/kg once a day, 1 day, rats
# Description: Sprague-Dawley rats (180-200 g, 7-8 weeks old, Jihui) were acclimated for 7 days and randomly divided into three groups: control group, irinotecan group, and CDK inhibitor group, with 10 rats per group. The control group received the same vehicle orally as the CDK inhibitor group, followed by an injection of the same vehicle as the irinotecan group; the irinotecan group received the same oral vehicle as the CDK inhibitor group, followed by an injection of irinotecan; the CDK inhibitor group received the CDK inhibitor orally, followed by an injection of irinotecan.
# From Day 2 to Day 7, the degree of constipation was assessed for each rat based on the following score:
# Constipation assessment: Feces excreted within a 3-hour period were collected and evaluated for morphology and weight using an electronic balance. Stool reduction rate was calculated according to the method of Ji Eun Kim (Lab Anim Res. 2016 December; 32(4): 231-240). Stool reduction rate (%)=(Control group−Irinotecan or CDK inhibitor group)/Control group×100%.
# The constipation relief rate of the CDK inhibitor was calculated as follows: Relief rate (%)=([…])/Irinotecan group stool reduction rate×100%.
# [5] = 5 mg/kg oral, 4 hours before and 8 hours after irinotecan
# [6] = 25 mg/kg oral, 6 hours before and 6 hours after irinotecan
# [7] = 50 mg/kg oral, 4 hours before and 8 hours after irinotecan
# [8] = 100 mg/kg oral, 6 hours before and 6 hours after irinotecan
# [9] = 50 mg/kg oral, 6 hours before irinotecan and 6 hours after irinotecan
# [10] = 100 mg/kg oral, 6 hours before irinotecan and 6 hours after irinotecan
# [11] = 25 mg/kg oral, 8 hours before 5-FU and 4 hours after 5-FU
# [12] = 100 mg/kg oral, 12 hours before irinotecan
# [13] = 50 mg/kg oral, 4 hours before irinotecan and 8 hours after irinotecan
smiles,measurement,setting,value
CC(=O)c1c(C)c2c(n(C3CCCC3)c1=O)=NC(Nc1ccc(N3CCN(S(=O)(=O)NCCN)CC3)cn1)NC=2 (stereo not drawn) [Compound 1],diarrhea relief rate,"[1]; 5 mg/kg oral, 8 hours before 5-FU and 4 hours after 5-FU",50%
same,diarrhea relief rate,"[1]; 10 mg/kg oral, 6 hours before and 6 hours after 5-FU",40%
same,diarrhea relief rate,"[1]; 25 mg/kg oral, 12 hours before 5-FU",85%
same,diarrhea relief rate,"[1]; 50 mg/kg oral, 8 hours before 5-FU and 4 hours after 5-FU",60%
same,diarrhea relief rate,"[1]; 75 mg/kg oral, 6 hours before and 6 hours after 5-FU",50%
same,diarrhea relief rate,"[1]; 100 mg/kg oral, 8 hours before 5-FU and 4 hours after 5-FU",75%
same,IC50,[2]; read-out: Absolute IC 50,< 1000 nM
same,IC50,[2]; read-out: Relative IC 50,< 1000 nM
same,diarrhea relief rate,[3]; [5],30%
same,diarrhea relief rate,"[3]; 10 mg/kg oral, 6 hours before and 6 hours after irinotecan",33.3%
same,diarrhea relief rate,[3]; [6],50%
same,diarrhea relief rate,[3]; [7],37.5%
same,diarrhea relief rate,"[3]; 100 mg/kg oral, 4 hours before and 8 hours after irinotecan",30%
same,diarrhea relief rate,[3]; [8],20%
same,constipation relief rate,"[4]; 2.5 mg/kg oral, 4 hours before irinotecan and 8 hours after irinotecan",20%
same,constipation relief rate,"[4]; 5 mg/kg oral, 6 hours before irinotecan and 6 hours after irinotecan",30%
same,constipation relief rate,"[4]; 25 mg/kg oral, 4 hours before irinotecan and 8 hours after irinotecan",75%
same,constipation relief rate,[4]; [9],50%
same,constipation relief rate,"[4]; 100 mg/kg oral, 4 hours before irinotecan and 8 hours after irinotecan",40%
same,constipation relief rate,[4]; [10],40%
CC(=O)c1c(C)c2cnc(Nc3ccc(N4CCN(S(=O)(=O)NCC(C)(C)N)CC4)cn3)nc2n(C2CCCC2)c1=O [Compound 2],diarrhea relief rate,[1]; [11],60%
same,diarrhea relief rate,"[1]; 25 mg/kg oral, 12 hours before and 12 hours after 5-FU",40%
same,diarrhea relief rate,"[1]; 50 mg/kg oral, 6 hours before and 6 hours after 5-FU",60%
same,diarrhea relief rate,"[1]; 100 mg/kg oral, 24 hours before 5-FU and 0 hours after 5-FU",40%
same,IC50,[2]; read-out: Absolute IC 50,< 500 nM
same,IC50,[2]; read-out: Relative IC 50,< 1000 nM
same,diarrhea relief rate,"[3]; 25 mg/kg oral, 4 hours before and 8 hours after irinotecan",70%
same,diarrhea relief rate,[3]; [6],60%
same,diarrhea relief rate,"[3]; 50 mg/kg oral, 8 hours before irinotecan and 4 hours after irinotecan",75%
same,diarrhea relief rate,[3]; [12],50%
same,constipation relief rate,"[4]; 5 mg/kg oral, 4 hours before irinotecan and 8 hours after irinotecan",25%
same,constipation relief rate,[4]; [13],80%
same,constipation relief rate,[4]; [10],80%
same,constipation relief rate,"[4]; 150 mg/kg oral, 6 hours before irinotecan and 6 hours after irinotecan",60%
CC(=O)c1c(C)c2cnc(Nc3ccc(N4CCN(S(=O)(=O)NCC(C)N)CC4)cn3)nc2n(C2CCCC2)c1=O (stereo not drawn) [Compound 3],diarrhea relief rate,"[1]; 10 mg/kg oral, 10 hours before 5-FU and 2 hours after 5-FU",50%
same,diarrhea relief rate,"[1]; 25 mg/kg oral, 2 hours before 5-FU and 10 hours after 5-FU",40%
same,diarrhea relief rate,[1]; [11],60%
same,diarrhea relief rate,"[1]; 150 mg/kg oral, 12 hours before 5-FU and 0 hours after 5-FU",50%
same,IC50,[2]; read-out: Absolute IC 50,< 10000 nM
same,IC50,[2]; read-out: Relative IC 50,< 5000 nM
same,diarrhea relief rate,[3]; [5],25%
same,diarrhea relief rate,"[3]; 25 mg/kg oral, 10 hours before and 2 hours after irinotecan",60%
same,diarrhea relief rate,[3]; [7],70%
same,diarrhea relief rate,[3]; [8],50%
same,constipation relief rate,"[4]; 25 mg/kg oral, 8 hours before irinotecan and 4 hours after irinotecan",50%
same,constipation relief rate,"[4]; 25 mg/kg oral, 12 hours before irinotecan and 0 hours after irinotecan",30%
same,constipation relief rate,[4]; [13],60%
same,constipation relief rate,[4]; [9],70%
CC(=O)c1c(C)c2cnc(Nc3ccc(N4CCN(S(=O)(=O)NCCCN)CC4)cn3)nc2n(C2CCCC2)c1=O [Compound 4],diarrhea relief rate,"[1]; 10 mg/kg oral, 8 hours before 5-FU and 4 hours after 5-FU",25%
same,diarrhea relief rate,"[1]; 25 mg/kg oral, 6 hours before and 6 hours after 5-FU",80%
same,diarrhea relief rate,"[1]; 50 mg/kg oral, 12 hours before 5-FU",70%
same,diarrhea relief rate,"[1]; 10 0 mg/kg oral, 8 hours before 5-FU and 4 hours after 5-FU",25%
same,IC50,[2]; read-out: Absolute IC 50,< 1000 nM
same,IC50,[2]; read-out: Relative IC 50,< 1000 nM
same,diarrhea relief rate,"[3]; 25 mg/kg oral, 2 hours before and 10 hours after irinotecan",30%
same,diarrhea relief rate,[3]; [7],60%
same,diarrhea relief rate,"[3]; 50 mg/kg oral, 6 hours before and 6 hours after irinotecan",60%
same,diarrhea relief rate,"[3]; 150 mg/kg oral, 10 hours before irinotecan",45%
same,constipation relief rate,"[4]; 10 mg/kg oral, 4 hours before irinotecan and 8 hours after irinotecan",40%
same,constipation relief rate,"[4]; 25 mg/kg oral, 6 hours before irinotecan and 6 hours after irinotecan",50%
same,constipation relief rate,[4]; [9],70%
same,constipation relief rate,"[4]; 100 mg/kg oral, 8 hours before irinotecan and 4 hours after irinotecan",40%
same,constipation relief rate,[4]; [12],30%
